# Active and inactive are the calls of the source. The calls are words filed in the database; no cut-off is given here.
# Assays:
# [1] = tested on: Influenza A virus; assay: microbe, parasite or virus in culture; details: H5N1, MDCK, 48 h
# [2] = tested on: Influenza A virus; type: functional, organism-based; details: A/Vietnam/1194/2004 (H5N1), MDCK, 48 h
# [3] = tested on: Influenza A virus; type: functional, organism-based; details: A/Puerto Rico/8/34 (H1N1), MDCK, 48 h
# [4] = tested on: Influenza A virus; type: functional, organism-based; details: A/Anhui/1/2013 (H7N9), MDCK, 48 h
# [5] = tested on: Influenza A virus; type: functional, organism-based; details: A/Aichi/2/68 (H3N2), MDCK, 48 h
# [6] = tested on: Influenza A virus; assay: Antiviral activity against influenza A virus (A/Puerto Rico/8/34) H1N1; type: functional, organism-based; details: (A/Puerto Rico/8/34) H1N1, MDCK
# [7] = tested on: Influenza A virus; assay: Antiviral activity against influenza A virus (A/Vietnam/1203/2004) H5N1; type: functional, organism-based; details: (A/Vietnam/1203/2004) H5N1, MDCK
# [8] = AUC(0 to t) in overnight fasted iv dosed Sprague-Dawley rat measured at 0.083 to 24 hrs post dose by LC-MS/MS method; type: ADME, organism-based; design: time upper 24 hrs, time lower 0.083 hrs, route iv; details: in vivo
# [9] = tested on: Influenza A virus; type: functional, organism-based; details: H5N1, MDCK, dose 0.03-100 µM, time 12.0 hrs, DDE = dose-dependent effect
# [10] = tested on: HEK293T; assay: Inhibition of influenza A/WSN/H1N1 virus RNA-dependent RNA polymerase activity in human 293 T cells co-transfected with pPOLI-Fluc assessed as reduction in luciferase activity at 0.01 uM incubated for 48 hrs by luciferase reporter gene assay relative to control; type: cell-based
# [11] = tested on: HEK293T; assay: Inhibition of influenza A/WSN/H1N1 virus RNA-dependent RNA polymerase activity in human 293 T cells co-transfected with pPOLI-Fluc assessed as reduction of Fluc/Rluc ratio incubated for 48 hrs; type: cell-based; details: DDE = dose-dependent effect
# [12] = tested on: Influenza A virus; type: functional, organism-based; details: H5N1, MDCK, time 12.0 hrs
# [13] = Acute toxicity in BALB/c mouse infected with influenza A virus A/PR/8/34 assessed as reduction in body weight at 2000 mg/kg, po administered 3 times per day; type: organism-based; details: in vivo
# [14] = AUC(0 to infinity) in overnight fasted iv dosed Sprague-Dawley rat measured at 0.083 to 24 hrs post dose by LC-MS/MS method; type: ADME, organism-based; design: time 0.083-24 hrs, route iv; details: in vivo
# [15] = Oral bioavailability in overnight fasted Sprague-Dawley rat measured at 0.25 to 24 hrs post dose by LC-MS/MS method; type: ADME, organism-based; details: in vivo, time 0.25-24 hrs
# [16] = Clearance in overnight fasted iv dosed Sprague-Dawley rat measured at 0.083 to 24 hrs post dose by LC-MS/MS method; type: ADME, organism-based; details: in vivo, time 0.083-24 hrs
# [17] = tested on: Influenza A virus; type: functional, organism-based; details: H5N1, A549, dose 0.018 µM, time 1.0 hrs
# [18] = Tmax in overnight fasted po dosed Sprague-Dawley rat plasma measured at 0.25 to 24 hrs post dose by LC-MS/MS method; type: ADME, organism-based; details: time 0.25-24 hrs
# [19] = tested on: HEK293T; assay: Inhibition of influenza A/WSN/H1N1 virus RNA-dependent RNA polymerase activity in human 293 T cells co-transfected with pPOLI-Fluc assessed as reduction in luciferase activity incubated for 48 hrs by luciferase reporter gene assay; type: cell-based
# [20] = tested on: Influenza A virus; type: functional, organism-based; details: H5N1, MDCK, dose 1.0 µM, time 48.0 hrs
# [21] = tested on: Influenza A virus; type: functional, organism-based; details: H5N1, MDCK
# [22] = Elimination half life in overnight fasted Sprague-Dawley rat at 0.20 ml, iv measured at 0.083 to 24 hrs post dose by LC-MS/MS method; type: ADME, organism-based; details: in vivo, 0.2 ml, time 0.083-24 hrs, read-out: beta t1/2 (converted)
# [23] = Bioavailability in overnight fasted iv dosed Sprague-Dawley rat measured at 0.083 to 24 hrs post dose by LC-MS/MS method; type: ADME, organism-based; details: in vivo, time 0.083-24 hrs
# [24] = Cmax in overnight fasted po dosed Sprague-Dawley rat plasma measured at 0.25 to 24 hrs post dose by LC-MS/MS method; type: ADME, organism-based; design: time upper 24 hrs, time lower 0.25 hrs, route po
# [25] = tested on: Influenza A virus; type: functional; details: H5N1, MDCK, time 12 hrs
# [26] = tested on: Influenza A virus; type: functional, A/PR/8/34; details: dose 10 mg/kg; route po; time 1 hrs
# [27] = tested on: Influenza A virus; type: functional, organism-based; details: H5N1, MDCK, dose 0.8 µM, time 12.0 hrs
# [28] = AUC(0 to t) in overnight fasted po dosed Sprague-Dawley rat measured at 0.25 to 24 hrs post dose by LC-MS/MS method; type: ADME, organism-based; design: time 0.25-24 hrs, route po; details: in vivo
# [29] = Binding affinity to influenza A virus RNA-dependent RNA polymerase PB1 subunit expressed in human 293T cells assessed as dissociation constant by MST assay; details: hek293t
# [30] = tested on: Influenza A virus; type: functional, A/PR/8/34; details: dose 20 mg/kg; route ig; time 1 hrs
# [31] = tested on: A549; assay: Induction of ROS generation in human A549 cells at 50 ug/ml incubated for 30 mins by DCFH-DA dye based fluorescence microscopy; type: functional, cell-based; details: dose 50.0 µg/ml
# [32] = Cmax in overnight fasted iv dosed Sprague-Dawley rat plasma measured at 0.083 to 24 hrs post dose by LC-MS/MS method; type: ADME, organism-based; design: time upper 24 hrs, time lower 0.083 hrs, route iv
# [33] = tested on: HEK293T; assay: Inhibition of influenza A/WSN/H1N1 virus RNA-dependent RNA polymerase activity in human 293 T cells co-transfected with pPOLI-Fluc assessed as reduction in luciferase activity at 0.1 uM incubated for 48 hrs by luciferase reporter gene assay relative to control; type: cell-based
# [34] = Tmax in overnight fasted iv dosed Sprague-Dawley rat plasma measured at 0.083 to 24 hrs post dose by LC-MS/MS method; type: ADME, organism-based; details: time 0.083-24 hrs
# [35] = Elimination half life in overnight fasted po dosed Sprague-Dawley rat measured at 0.25 to 24 hrs post dose by LC-MS/MS method; type: ADME, organism-based; details: in vivo, time 0.25-24 hrs, read-out: beta t1/2 (converted)
# [36] = tested on: Influenza A virus; type: functional, organism-based; details: H5N1, MDCK, DDE = dose-dependent effect
# [37] = AUC(0 to infinity) in overnight fasted po dosed Sprague-Dawley rat measured at 0.25 to 24 hrs post dose by LC-MS/MS method; type: ADME, organism-based; design: time upper 24 hrs, time lower 0.25 hrs, route po; details: in vivo
smiles,measurement,setting,value
CCOc1ccc(C(=O)NNc2cccc(Br)c2)cc1,EC50,[1],> 100000 nM
CCOc1ccc(C(=O)N(C)Nc2c(Cl)cccc2Cl)cc1,EC50,[1],> 100000 nM
COc1ccccc1C(=O)NNc1c(Br)cccc1Br,EC50,[1],> 100000 nM
O=c1oc2cc(O)cc(O)c2c2ccccc12,EC50,[2],1700 nM
same,EC50,[3],1700 nM
same,EC50,[4],1700 nM
same,EC50,[5],1700 nM
O=C(O)[C@H]1C2CCC(CC2)[C@@H]1Nc1nc(-c2c[nH]c3ncc(F)cc23)ncc1F [PIMODIVIR],EC50,[6],0.3 nM
same,EC50,[7],0.1 nM
O=C(NNc1c(Br)cccc1Br)c1ccccc1,EC50,[1],81000 nM
O=C(NNc1c(Br)cccc1Br)c1ccc(Br)cc1,EC50,[1],22000 nM
COC(=O)c1ccc(C(=O)NNc2c(Br)cccc2Br)cc1,EC50,[1],330 nM
CN(C)c1ccc(C(=O)NNc2c(Cl)cccc2Cl)cc1,EC50,[1],46 nM
CN(C)c1ccc(C(=O)NNc2c(Br)cccc2Br)cc1,EC50,[1],31 nM
O=C(NNc1c(Br)cccc1Br)c1ccc(F)cc1,EC50,[1],88000 nM
Cc1ccc(C(=O)NNc2c(Cl)cccc2Cl)cc1,EC50,[1],4100 nM
COc1ccc(C(=O)NNc2c(F)cccc2F)cc1,EC50,[1],> 100000 nM
O=C(NNc1c(Br)cccc1Br)c1ccc(-c2ccccc2)cc1,EC50,[1],83 nM
Cc1cccc(C)c1NNC(=O)c1ccc(C(C)(C)C)cc1,EC50,[1],220 nM
COc1ccc(C(=O)NNc2c(Br)cccc2Br)cc1,EC50,[1],2300 nM
O=C(NNc1c(Br)cccc1Br)c1ccc(N2CCOCC2)cc1,AUC(0-t),[8],1480 ng·h/mL
same,Activity,[9],Dde
same,inhibition,[10],60%
same,Activity,[11],Dde
same,Activity,[12],Active
same,Activity,[13],Toxic
same,AUC(0-inf),[14],1500 ng·h/mL
same,bioavailability,[15],32.2%
same,clearance,[16],33.8 mL/min/kg
same,Activity,[17],Active
same,Tmax,[18],25.2 min
same,Activity,[19],Active
same,Activity,[20],Active
same,Activity,[21],Active
same,half-life,[22],90 min
same,F,[23],100%
same,Cmax,[24],635 ng/mL
same,inhibition at 0.03 µM,[25],> 50%
same,Activity,[26],100%
same,Activity,[27],Active
same,AUC(0-t),[28],1590 ng·h/mL
same,Kd,[29],351 nM
same,Activity,[30],70%
same,Activity,[31],Active
same,EC50,[1],18 nM
same,Cmax,[32],2520 ng/mL
same,inhibition,[33],91%
same,Tmax,[34],4.8 min
same,half-life,[35],109 min
same,Activity,[36],Dde
same,AUC(0-inf),[37],1710 ng·h/mL
O=C(NNc1c(Br)cccc1Br)c1cccnc1,EC50,[1],> 100000 nM
CCc1ccc(C(=O)NNc2c(Br)cc(Br)cc2Br)cc1,EC50,[1],4400 nM
O=C(NNc1c(Cl)cccc1Cl)c1ccccc1,EC50,[1],> 100000 nM
CCOc1ccc(C(=O)NNc2c(C)cccc2C)cc1,EC50,[1],460 nM
O=C(NNc1c(Br)cccc1Br)c1ccc(OCC(F)(F)F)cc1,EC50,[1],34 nM
CCCCOc1ccc(C(=O)NNc2c(Br)cccc2Br)cc1,EC50,[1],230 nM
NC(=O)c1nc(F)cnc1O,Activity,[12],Active
Nc1ccc(C(=O)NNc2c(Br)cccc2Br)cc1,EC50,[1],7800 nM
